Biological target: H1047R PIK3CA enzyme (Homo sapiens, UniProt P42336, H1047R)
Assay: ADP-Glo Biochemical PIK3CA Kinase Assay

Chain of H1047R PIK3CA enzyme (P42336 whole entry H1047R): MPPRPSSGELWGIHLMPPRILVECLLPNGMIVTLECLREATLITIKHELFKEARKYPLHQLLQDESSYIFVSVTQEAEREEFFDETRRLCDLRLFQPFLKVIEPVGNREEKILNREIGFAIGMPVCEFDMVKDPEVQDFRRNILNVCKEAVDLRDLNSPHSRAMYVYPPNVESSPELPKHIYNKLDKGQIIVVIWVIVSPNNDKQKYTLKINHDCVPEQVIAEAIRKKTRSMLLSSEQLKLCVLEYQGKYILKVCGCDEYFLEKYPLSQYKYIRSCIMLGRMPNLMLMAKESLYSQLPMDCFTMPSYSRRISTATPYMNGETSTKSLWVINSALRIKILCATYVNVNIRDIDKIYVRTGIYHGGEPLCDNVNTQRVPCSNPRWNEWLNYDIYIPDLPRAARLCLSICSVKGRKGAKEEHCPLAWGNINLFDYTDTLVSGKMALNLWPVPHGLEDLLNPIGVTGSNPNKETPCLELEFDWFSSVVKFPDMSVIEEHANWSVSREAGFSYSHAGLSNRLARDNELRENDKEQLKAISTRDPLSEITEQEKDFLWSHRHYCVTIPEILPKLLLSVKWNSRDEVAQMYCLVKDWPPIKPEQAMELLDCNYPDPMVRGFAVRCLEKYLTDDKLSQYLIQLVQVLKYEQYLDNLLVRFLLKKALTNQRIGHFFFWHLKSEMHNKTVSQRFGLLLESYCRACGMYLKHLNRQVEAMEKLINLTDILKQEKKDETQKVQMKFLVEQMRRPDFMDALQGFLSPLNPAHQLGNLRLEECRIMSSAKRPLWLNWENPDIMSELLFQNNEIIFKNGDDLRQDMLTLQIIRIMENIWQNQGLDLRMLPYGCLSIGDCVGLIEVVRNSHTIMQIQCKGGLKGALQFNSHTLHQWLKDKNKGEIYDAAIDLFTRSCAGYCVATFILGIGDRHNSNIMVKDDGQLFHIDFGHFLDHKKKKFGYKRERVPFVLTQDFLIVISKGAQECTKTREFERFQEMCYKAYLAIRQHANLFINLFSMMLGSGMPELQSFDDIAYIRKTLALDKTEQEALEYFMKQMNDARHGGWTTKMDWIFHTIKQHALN
Chain of H1047R PIK3CA enzyme (P27986 whole entry partner): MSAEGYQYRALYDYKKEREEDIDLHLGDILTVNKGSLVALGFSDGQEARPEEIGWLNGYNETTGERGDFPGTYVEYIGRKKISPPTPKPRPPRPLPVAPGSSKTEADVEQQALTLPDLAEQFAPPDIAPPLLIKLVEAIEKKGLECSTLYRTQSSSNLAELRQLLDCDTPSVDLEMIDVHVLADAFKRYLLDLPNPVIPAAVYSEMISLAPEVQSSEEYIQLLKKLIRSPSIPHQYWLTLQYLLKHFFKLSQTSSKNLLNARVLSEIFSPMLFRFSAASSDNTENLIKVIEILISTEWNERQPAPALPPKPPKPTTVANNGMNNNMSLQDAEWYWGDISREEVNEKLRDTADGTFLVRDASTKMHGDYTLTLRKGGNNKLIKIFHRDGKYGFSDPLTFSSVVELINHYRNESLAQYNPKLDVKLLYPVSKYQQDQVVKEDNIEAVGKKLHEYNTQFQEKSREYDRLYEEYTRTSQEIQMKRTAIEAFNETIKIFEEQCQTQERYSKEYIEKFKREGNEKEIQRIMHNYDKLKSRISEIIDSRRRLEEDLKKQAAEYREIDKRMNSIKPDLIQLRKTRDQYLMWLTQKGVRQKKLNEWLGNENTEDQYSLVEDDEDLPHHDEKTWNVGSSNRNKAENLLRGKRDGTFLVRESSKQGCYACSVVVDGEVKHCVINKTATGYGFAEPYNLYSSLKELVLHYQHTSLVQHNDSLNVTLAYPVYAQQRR

| Compound | IC50 |
| --- | --- |
| O=C(Nc1cc(Br)cc2c1C(c1cc(F)ccc1Cl)NC2=O)c1cc(F)cc(Cl)c1 (centres unmarked) [Compound I-216] | ≤ 100 nM |
| Cn1cc(-c2ccc(C3NC(=O)c4cccc(NC(=O)c5cc(F)cc(C(F)(F)F)c5)c43)c(Cl)c2)cn1 (centres unmarked) [Compound I-425] | 10000 to 100000 nM |
| O=C1NC(c2cc(F)ccc2Cl)c2c(NC(=O)N3CCCc4ccc(Cl)cc43)cc(Br)cc21 (centres unmarked) [Compound I-992] | 1000 to 10000 nM |
| Cc1ccccc1C1NC(=O)c2cc([C@@H](C)N)cc(NC(=O)c3csc4ccccc34)c21 (mixture of isomers) [Compound I-90] | ≤ 100 nM |
| N#Cc1cnn(-c2cc(NC(=O)N3CC(O)c4cc(F)ccc43)c3c(c2)C(=O)NC3c2cc(F)ccc2Cl)c1 (centres unmarked) [Compound I-2404] | 100 to 500 nM |
| O=C1N[C@H](c2cc(F)ccc2Cl)c2c(NC(=O)N3C[C@@H](O)c4cc(F)ccc43)cc(-n3nccn3)cc21 (single isomer, unassigned) [Compound I-2344] | 1000 to 10000 nM |
| CS(=O)(=O)c1cc(NC(=O)c2cc(F)cc(C(F)(F)F)c2)c2c(c1)C(=O)NC2(c1cc(F)ccc1Cl)S(=O)(=O)O (centres unmarked) [Compound I-1296] | 1000 to 10000 nM |
| O=C(Nc1cc(C2COC2)nc2c1C(c1cc(F)ccc1Cl)NC2=O)c1cc(F)cc(C(F)(F)F)c1 (centres unmarked) [Compound I-689] | 100 to 500 nM |
| O=C(Nc1cc(Br)cc2c1C(c1cc(F)ccc1F)NC2=O)c1cc(F)cc(C(F)(F)F)c1 (centres unmarked) [Compound I-675] | ≤ 100 nM |
| O=C(Nc1ccc(F)cc1C(F)(F)F)Nc1cc(Br)cc2c1C(c1cc(F)ccc1Cl)NC2=O (centres unmarked) [Compound I-1050] | 100 to 500 nM |
| O=C1N[C@@H](c2cc(F)ccc2Cl)c2c(NC(=O)[C@@H]3CCC[C@@H](OC(F)(F)F)C3)cccc21 (single isomer, unassigned) [Compound I-2216] | 10000 to 100000 nM |
| O=C(Nc1cc(C(O)(O)C(F)(F)F)cc2c1C(c1cc(F)ccc1Cl)NC2=O)c1cc(F)cc(C(F)(F)F)c1 (centres unmarked) [Compound I-484] | 100 to 500 nM |
| CO[C@@H]1CC[C@H]1Nc1cc(NC(=O)c2cc(F)cc(C(F)(F)F)c2)c2c(c1)C(=O)NC2c1cc(F)ccc1Cl (mixture of isomers) [Compound I-780] | ≤ 100 nM |
| O=C1NC(c2cc(F)ccc2Cl)c2c(NC(=O)c3cc(C(F)(F)F)cc(F)c3C3(O)COC3)cccc21 (centres unmarked) [Compound I-1114] | 1000 to 10000 nM |
| O=C(Nc1cc(-c2cn3ncccc3n2)cc2c1C(c1cc(F)ccc1Cl)NC2=O)c1cc(F)cc(C(F)(F)F)c1 (centres unmarked) [Compound I-1306] | ≤ 100 nM |
| O=C1NC(c2cc(F)ccc2Cl)c2c(NC(=O)N3CCCC(c4ccccc4)C3)cc(Br)cc21 (racemic) [Compound I-597] | 1000 to 10000 nM |
| O=C(Nc1cc(Br)cc2c1[C@H](c1cccc(F)c1F)NC2=O)c1cc(F)cc(C(F)(F)F)c1 [Compound I-682] | 100 to 500 nM |
| C[C@H](C#N)Cn1cc(-c2cc(NC(=O)N3C[C@H](O)c4cc(F)ccc43)c3c(c2)C(=O)N[C@@H]3c2cc(F)ccc2Cl)cn1 (single isomer, unassigned) [Compound I-2500] | 100 to 500 nM |
| O=C1NC(c2cc(F)ccc2Cl)c2c(Nc3nnc4n3CCCC4)cc(-c3ccc4ncnn4c3)cc21 (centres unmarked) [Compound I-2059] | 10000 to 100000 nM |
| O=C(Nc1cnc(N2CC(F)(F)C2)c2c1C(Cl)(c1cc(F)ccc1Cl)NC2=O)c1cc(F)cc(C(F)(F)F)c1 (centres unmarked) [Compound I-274, N-(1-Chloro-1-(2-chloro-5-fluorophenyl)-4-(3,3-difluoroazetidin-1-yl)-3-oxo-2,3-dihydro-1H-pyrrolo[3,4-c]pyridin-7-yl)-3-fluoro-5-(trifluoromethyl)benzamide] | 1000 to 10000 nM |
| O=C1NC(c2cc(F)ccc2Cl)c2c(NC(=O)N3CCCC3c3ccccc3)cc(Br)cc21 (centres unmarked) [Compound I-769] | 1000 to 10000 nM |
| O=C1NC(c2cc(F)ccc2Cl)c2c(NC(=O)c3cc(Cl)cc4cccnc34)cc(Br)cc21 (centres unmarked) [Compound I-802] | 10000 to 100000 nM |

| Compound | IC50 |
| --- | --- |
| CNc1cc(NC(=O)N2C[C@@](O)(C(F)(F)F)c3cc(F)ccc32)c2c(n1)C(=O)N[C@@H]2c1cc(F)ccc1Cl (single isomer, unassigned) [Compound I-2645] | 1000 to 10000 nM |
| Cc1c(F)cccc1[C@@H]1NC(=O)c2cc(Br)cc(NC(=O)c3cc(F)cc(C(F)(F)F)c3)c21 [Compound I-750] | 100 to 500 nM |
| O=C1NCc2c(NC(=O)c3csc4c3CCCC4)cccc21 [Compound I-404] | 10000 to 100000 nM |
| O=C1NC(c2cc(F)ccc2Cl)c2c(NC(=O)c3[nH]nnc3CC(F)(F)F)cccc21 (centres unmarked) [Compound I-2194] | 10000 to 100000 nM |
| O=C(Nc1cc(Br)cc2c1[C@H](c1cc(F)ccc1F)NC2=O)c1cc(F)cc(C(F)(F)F)c1 [Compound I-674] | 100 to 500 nM |
| COc1cc(F)cc(C(=O)Nc2cc(Br)cc3c2C(c2cc(F)ccc2Cl)NC3=O)c1 (centres unmarked) [Compound I-800] | 500 to 1000 nM |
| N#CCc1ccc(NC(=O)N2C[C@](O)(C(F)(F)F)c3cc(F)ccc32)c2c1C(=O)N[C@@H]2c1cc(F)ccc1Cl (single isomer, unassigned) [Compound I-2615] | 1000 to 10000 nM |
| O=C(Nc1cc(NC2=NC[C@H](C(F)(F)F)O2)cc2c1[C@H](c1cc(F)ccc1Cl)NC2=O)c1cc(F)cc(C(F)(F)F)c1 (single isomer, unassigned) [Compound I-2323] | 100 to 500 nM |
| O=C(Nc1cc(-c2cn3cccnc3n2)cc2c1C(c1cc(F)ccc1Cl)NC2=O)c1cc(F)cc(C(F)(F)F)c1 (centres unmarked) [Compound I-1355] | ≤ 100 nM |
| Cc1nc(C)c(-c2cc(NC(=O)c3cc(F)cc(Cl)c3)c3c(n2)C(=O)NC3c2cc(F)ccc2Cl)s1 (centres unmarked) [Compound I-459] | ≤ 100 nM |
| CN1CC(c2cc(NC(=O)c3cc(F)cc(C(F)(F)F)c3)c3c(c2)C(=O)NC3c2cc(F)ccc2Cl)NCC1=O (centres unmarked) [Compound I-1277] | ≤ 100 nM |
| N#C[C@H]1C[C@H](Oc2cc(NC(=O)c3cc(F)cc(C(F)(F)F)c3)c3c(c2)C(=O)N[C@H]3c2cc(F)ccc2Cl)C1 (stereo in doubt) [Compound I-1305] | ≤ 100 nM |
| O=C(Nc1cc(C2CCOCC2)cc2c1C(c1cc(F)ccc1Cl)NC2=O)c1cc(F)cc(C(F)(F)F)c1 (centres unmarked) [Compound I-1187] | ≤ 100 nM |
| O=C1NC(c2cc(F)ccc2Cl)c2c(NC(=O)N3CCCOCC3)cc(Br)cc21 (centres unmarked) [Compound I-574] | 10000 to 100000 nM |
| COc1c(F)cc(Cl)cc1C(=O)Nc1cc(Br)cc2c1C(c1cc(F)ccc1Cl)NC2=O (centres unmarked) [Compound I-858] | 1000 to 10000 nM |
| Cc1ncc(-c2cc(NC(=O)c3cc(F)cc(Cl)c3)c3c(c2)C(=O)N[C@@H]3c2cc(F)ccc2Cl)cn1 [Compound I-895] | 10000 to 100000 nM |
| O=C1N[C@@H](c2cc(F)ccc2Cl)c2c(NC(=O)[C@@H]3CCC[C@H](C(F)(F)F)C3)cc(-c3ccc4ncnn4c3)cc21 [Compound I-2030] | 500 to 1000 nM |
| O=C1NC(c2cc(F)ccc2Cl)c2c(NC(=O)N3CCCC3)cc(Br)cc21 (centres unmarked) [Compound I-481] | 10000 to 100000 nM |
| N#Cc1c(-c2cc(NC(=O)c3cc(F)cc(C(F)(F)F)c3)c3c(c2)C(=O)N[C@@H]3c2cc(F)ccc2Cl)cnn1C(F)F [Compound I-1920] | 1000 to 10000 nM |
| O=C(Nc1cc(-c2cn3ncnc3cn2)cc2c1[C@@H](c1cc(F)ccc1C(F)F)NC2=O)c1cc(F)cc(C(F)(F)F)c1 (single isomer, unassigned) [Compound I-2233] | 1000 to 10000 nM |
| O=C1NC(c2cc(F)ccc2Cl)c2c(NC(=O)[C@H](O)c3cc(F)cc(F)c3)cc(Br)cc21 (single isomer, unassigned) [Compound I-804] | 10000 to 100000 nM |
| O=C1NC(c2cc(F)ccc2Cl)c2c(NC(=O)N3CC(CO)c4ccccc43)cccc21 (mixture of isomers) [Compound I-2314] | 1000 to 10000 nM |
